The values that follow come from ChEMBL document CHEMBL1201862, “PubChem BioAssay data set” (2004).

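96-well plates; 48 h exposure; 5 concentrations. Endpoints by linear interpolation between flanking doses. Not reached: highest tested concentration assigned. GI50 = concentration required for 50% inhibition of growth.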 The source made the active and inactive calls. Rule as the data show it: active = GI50 up to about 1.1 µM and inactive = higher.

Common to all, as to assay: NCI anticancer screen, dose series, 48 h
Assay [1] deals with RPMI-8226.
The subject of assay [2] is UACC-62.
The subject of assay [3] is U-251.
In assay [4] the test system is COLO 205.
Assay [5] deals with DU-145.
Assay [6] deals with HT-29.
Assay [7] relates to IGROV-1.
For assay [8], the system named is MDA-N.
In assay [9] the test system is SF-268.
Assay [10] has as its system MDA-MB-231.
Assay [11] deals with NCI-H226.
For assay [12], the system named is OVCAR-8.
Assay [13] has as its system OVCAR-4.
Assay [14] relates to SW-620.
Assay [15] deals with HCC 2998.
Assay [16] concerns BT-549.
The subject of assay [17] is HOP-62.
In assay [18] the test system is OVCAR-5.
The test system of assay [19] is PC-3.
Assay [20] has as its system Hs-578T.

Take `COc1ccc(/N=N/C(=N/NC(=O)c2cc(Cl)ccc2C(=O)c2ccccc2)c2ccc(N(CCC#N)CCC#N)cc2C)cc1`: the GI50 is 9.35 µM (inactive) in [1]; 17.2 µM (inactive) in [2]; 16.4 µM (inactive) in assay [3]; 17.6 µM (inactive) in assay [4]; 19.5 µM (inactive) in assay [5]; 21.5 µM (inactive) in assay [6]. The GI50 in assay [7] was 6.49 µM (inactive); in [8], 21.7 µM (inactive); in assay [9] it was 12.1 µM (inactive); in assay [10], 15.1 µM (inactive); in assay [11] it was 16.2 µM (inactive); in assay [12], 16.1 µM (inactive). Further, the GI50 in [13] was 21.4 µM (inactive); in assay [14], 22.3 µM (inactive); in assay [15], 18.9 µM (inactive); in assay [16], 29.4 µM (inactive); in assay [17] it was 20.1 µM (inactive); in assay [18], 18.2 µM (inactive). The GI50 in assay [19] was 11.4 µM (inactive); in assay [20], 29.9 µM (inactive).

In the case of `CCN(CC)CCCNc1c2c(Cl)cc(Cl)cc2nc2nc(O)nc(C)c12`, the GI50 in [1] is > 10 µM (inactive); in [2], 68.2 µM (inactive); in [3], 17.3 µM (inactive); in assay [4] it was 45.3 µM (inactive); in assay [5] it was > 100 µM (inactive); in [6], 18 µM (inactive). The GI50 in assay [7] was 35.6 µM (inactive); in [8], 18.6 µM (inactive); in assay [9], 23 µM (inactive); in assay [10], 18.5 µM (inactive); in assay [11], 55.2 µM (inactive); in [12] it was > 10 µM (inactive). Besides, the GI50 in assay [13] is 33.9 µM (inactive); in assay [14] it was 17.8 µM (inactive); in assay [15], 21.5 µM (inactive); in [16], 84.5 µM (inactive); in assay [17] it was 23.2 µM (inactive); in assay [18] it was 19.9 µM (inactive). For the same molecule, the GI50 was 30.7 µM (inactive) in assay [19] and 47.5 µM (inactive) in [20].

Regarding `CC[C@H]1C=CCC[C@@]2(C[C@@H]3CC[C@@H]4[C@H](C(=O)OCCCCCCCCCCCCCCCC(=O)N(CCCN)CCCCN)[C@]5(CCC[C@@H](C)O5)NC(=[N+]34)N2)O1`, the GI50 in [1] was 0.0344 µM (active); in [2], 0.0185 µM (active); in assay [3] it was 0.0561 µM (active); in assay [4], 0.0336 µM (active); in assay [5] it was 0.348 µM (active); in assay [6], 0.0364 µM (active). Further, the GI50 was 0.0695 µM (active) in [7]; 0.0121 µM (active) in assay [8]; 0.0214 µM (active) in assay [9]; 0.275 µM (active) in assay [10]; 0.314 µM (active) in assay [11]; 0.155 µM (active) in assay [12]. The GI50 was 1.34 µM (inactive) in assay [13]; 0.0547 µM (active) in assay [14]; 0.0641 µM (active) in assay [15]; 0.138 µM (active) in assay [16]; 0.0415 µM (active) in [17]; 0.108 µM (active) in [18]. For the same molecule, the GI50 is 0.0428 µM (active) in [19] and 0.0875 µM (active) in assay [20].

For `C/C(NC(=O)c1ccccc1)=C(/C(=O)c1ccccc1)[C@@H]1OC(C)(C)O[C@@H]1[C@H]1COC(C)(C)O1`, the GI50 in assay [1] was 14.9 µM (inactive); in assay [2], 39.4 µM (inactive); in [3], 30.9 µM (inactive); in assay [4] it was 22.3 µM (inactive); in [5], 44.7 µM (inactive); in assay [6], 27 µM (inactive). Besides, the GI50 was 13.2 µM (inactive) in assay [7]; 18.6 µM (inactive) in assay [8]; 35.6 µM (inactive) in assay [9]; 23.7 µM (inactive) in [10]; 33 µM (inactive) in assay [11]; 29.2 µM (inactive) in assay [12]. Besides, the GI50 in [13] was 27.6 µM (inactive); in assay [14] it was 20.3 µM (inactive); in assay [15], 23.9 µM (inactive); in [16] it was 25.8 µM (inactive); in assay [17], 33.1 µM (inactive); in assay [18], 34.4 µM (inactive). Further, the GI50 in assay [19] is 30.4 µM (inactive); in assay [20], 27 µM (inactive).

On to `CN(C)CCO/N=C1/C=C2CC[C@H]3[C@@H]4CC[C@H](O)[C@@]4(C)CC[C@@H]3[C@@]2(C)CC1`, for which the GI50 in [1] was 25.2 µM (inactive); in assay [2], 10.9 µM (inactive); in [3] it was 10.1 µM (inactive); in [4], 16.2 µM (inactive); in assay [5] it was 16.7 µM (inactive); in [6], 1.05 µM (active). The GI50 in assay [7] was 6.95 µM (inactive); in [8] it was 3.72 µM (inactive); in [9], 7.48 µM (inactive); in assay [10], 12.9 µM (inactive); in assay [11], 1.23 µM (inactive); in assay [12], 13.9 µM (inactive). Besides, the GI50 in assay [13] is 2.49 µM (inactive); in assay [14] it was 10.7 µM (inactive); in assay [15], 9.82 µM (inactive); in assay [16] it was 2.61 µM (inactive); in assay [17] it was 12.1 µM (inactive); in [18] it was 12.5 µM (inactive). Also, the GI50 in assay [19] was 18.2 µM (inactive); in [20], 4.91 µM (inactive).
